Assay results taken from US20150197492A1, “NOVEL INDENO[1,2-c]QUINOLIN-11-ONE DERIVATIVES, PREPARATION METHOD AND APPLICATION THEREOF” (National Defense Medical Center, priority 2014, published 2015).

Assays:
Assay type in all cases: cell-based
[1] = tested on: MCF7; assay: cells; details: MCF7 (Breast Cancer), 10 μM, 48 hours
[2] = tested on: SK-MEL-28; assay: cells; details: SK-MEL-28 (Melanoma), 10 μM, 48 hours
[3] = tested on: human PC-3 cells; assay: Sulforhodamine B (SRB) assay, cytotoxicity against PC-3 cells; details: SRB assay, PC-3 cells
Experimental: Add 5% Fetal Bovine Serum (FBS) to 96-well plate and fix the cells with 10% TCA after 24 hours of incubation and add the compound (T0). Add DMSO and culture for another 48 hours and the cells are fixed in 0.4% (W/V), 10% TCA and SRB, and […]. Excess SRB is washed off by 1% acetic acid and cells stained with SRB are dissolved in 10 mmol/L Trizma base. The absorbance is measured at 515 nm. The treatment time is 0 (T0), control growth (C) and the increase of the compound (Tx) in the cells are shown below and are used to calculate the increase of the concentration of the compound in percentage. Growth inhibition (GI %) is calculated using the following formula 100−[(TX−T0)/(C−T0)]×100. The 50% growth inhibition concentration (IC50) is used to confirm the concentration of compound and thus results in 50% reduction of the treated cells which control the amount of total protein.
This part of experimental results are SRB assays measuring cytotoxicity of the 26 synthesized compounds against human PC-3 cells and are summarized in Table 1 and 2.

[4] = tested on: DU-145; assay: cells; details: DU-145 (Prostate Cancer), 10 μM, 48 hours
[5] = tested on: NCI/ADR-RES; assay: cells; details: NCI/ADR-RES (Ovarian Cancer), 10 μM, 48 hours
[6] = tested on: HT29; assay: cells; details: HT29 (Colon Cancer), 10 μM, 48 hours
[7] = tested on: SF-539; assay: cells; details: SF-539 (CNS Cancer), 10 μM, 48 hours
[8] = tested on: HCT-116; assay: cells; details: HCT-116 (Colon Cancer), 10 μM, 48 hours
[9] = tested on: HS 578T; assay: cells; details: HS 578T (Breast Cancer), 10 μM, 48 hours
[10] = tested on: SF-295; assay: cells; details: SF-295 (CNS Cancer), 10 μM, 48 hours
[11] = tested on: KM12; assay: cells; details: KM12 (Colon Cancer), 10 μM, 48 hours
[12] = tested on: MALME-3M; assay: cells; details: MALME-3M (Melanoma), 10 μM, 48 hours
[13] = tested on: CCRF-CEM; assay: cells; details: CCRF-CEM (Leukemia), 10 μM, 48 hours
[14] = tested on: MDA-MB-435; assay: cells; details: MDA-MB-435 (Melanoma), 10 μM, 48 hours
[15] = tested on: IGROV1; assay: cells; details: IGROV1 (Ovarian Cancer), 10 μM, 48 hours
[16] = tested on: HCT-15; assay: cells; details: HCT-15 (Colon Cancer), 10 μM, 48 hours
[17] = tested on: SF-268; assay: cells; details: SF-268 (CNS Cancer), 10 μM, 48 hours
[18] = tested on: HCC-2998; assay: cells; details: HCC-2998 (Colon Cancer), 10 μM, 48 hours
[19] = tested on: HOP-62; assay: cells; details: HOP-62 (Non-Small Cell Lung Cancer), 10 μM, 48 hours
[20] = tested on: CAKI-1; assay: cells; details: CAKI-1 (Renal Cancer), 10 μM, 48 hours
[21] = tested on: UACC-257; assay: cells; details: UACC-257 (Melanoma), 10 μM, 48 hours
[22] = tested on: A549/ATCC; assay: cells; details: A549/ATCC (Non-Small Cell Lung Cancer), 10 μM, 48 hours
[23] = tested on: HL-60 (TB); assay: cells; details: HL-60 (TB) (Leukemia), 10 μM, 48 hours
[24] = tested on: NCI-H226; assay: cells; details: NCI-H226 (Non-Small Cell Lung Cancer), 10 μM, 48 hours
[25] = tested on: A498; assay: cells; details: A498 (Renal Cancer), 10 μM, 48 hours
[26] = tested on: MDA-MB-231/ATCC; assay: cells; details: MDA-MB-231/ATCC (Breast Cancer), 10 μM, 48 hours
[27] = tested on: UACC-62; assay: cells; details: UACC-62 (Melanoma), 10 μM, 48 hours
[28] = tested on: BT-549; assay: cells; details: BT-549 (Breast Cancer), 10 μM, 48 hours
[29] = tested on: U251; assay: cells; details: U251 (CNS Cancer), 10 μM, 48 hours

SMILES | growth percentage [1] | growth percentage [2] | growth percentage [4] | growth percentage [5] | growth percentage [6] | growth percentage [7] | growth percentage [8] | growth percentage [10] | growth percentage [11] | growth percentage [12] | growth percentage [13] | growth percentage [14] | growth percentage [15] | growth percentage [16] | growth percentage [17] | growth percentage [18] | growth percentage [20] | growth percentage [21] | growth percentage [22] | growth percentage [23] | also measured
CC1CCN(c2nc3ccccc3c3c2-c2ccc(Cl)cc2C3=O)CC1 [SJ-6, 9-Chloro-6-(4-methylpiperidin-1-yl)-11H-indeno[1,2-c]quinolin-11-one] | 64.65% | 105.21% | 103.47% | 90.28% | 104.84% | 90.22% | 102.51% | 96.18% | 94.80% | 98.31% | 104.33% | 104.53% | 94.36% | 97.78% | 96.49% | 102.76% | 83.89% | 106.47% | 101.69% | 98.84% | Toxicity (%) [3]: 0%; GI % (10 μM) [3]: 89.81%; growth percentage [9]: 98.38%; growth percentage [19]: 64.18%; growth percentage [24]: 94.59%; growth percentage [25]: 87.55%; growth percentage [26]: 90.96%; growth percentage [27]: 93.36%; growth percentage [28]: 95.52%
O=C1c2cc(Cl)ccc2-c2c(N3CCN(C4CCCC4)CC3)nc3ccccc3c21 [SJ-14, 9-Chloro-6-(4-cyclopentylpiperazin-1-yl)-11H-indeno[1,2-c]quinolin-11-one] | 75.18% | 107.58% | 110.73% | 100.39% | 93.22% | 101.34% | 91.34% | 96.87% | 99.33% | 92.48% | 95.17% | 99.93% | 85.84% | 89.64% | 96.39% | 106.04% | 93.83% | 98.37% | 101.56% | 103.04% | Toxicity (%) [3]: 0%; GI % (10 μM) [3]: 96.26%; growth percentage [9]: 99.40%; growth percentage [19]: 108.83%; growth percentage [24]: 92.80%; growth percentage [25]: 88.64%; growth percentage [26]: 82.96%; growth percentage [27]: 95.06%; growth percentage [28]: 102.74%
O=C1c2cc(Cl)ccc2-c2c(N3CCN(c4ccccc4)CC3)nc3ccccc3c21 [SJ-16, 9-Chloro-6-(4-phenylpiperazin-1-yl)-11H-indeno[1,2-c]quinolin-11-one] | 53.31% | 104.82% | 102.96% | 97.88% | 82.40% | 83.17% | 78.18% | 60.91% | 98.34% | 100.05% | 93.52% | 99.55% | 65.13% | 80.71% | 85.45% | 106.23% | 80.23% | 98.40% | 90.89% | 105.45% | Toxicity (%) [3]: 0%; GI % (10 μM) [3]: 65.91%; growth percentage [24]: 79.43%; growth percentage [25]: 97.48%; growth percentage [26]: 73.80%; growth percentage [27]: 87.17%; growth percentage [28]: 89.83%
COc1cccc(N2CCN(c3nc4ccccc4c4c3-c3ccc(Cl)cc3C4=O)CC2)c1 [SJ-20, 9-Chloro-6-(4-(3-methoxyphenyl)piperazin-1-yl)-11H-indeno[1,2-c]quinolin-11-one] | 77.46% | 103.93% | 98.98% | 92.82% | 95.93% | 83.97% | 93.02% | 90.05% | 105.95% | 92.79% | 93.78% | 100.75% | 80.87% | 100.39% | 83.89% | 105.79% | 86.59% | 93.79% | 101.22% | 99.09% | Toxicity (%) [3]: 0%; GI % (10 μM) [3]: 98.05%; growth percentage [9]: 71.75%; growth percentage [19]: 90.22%; growth percentage [24]: 89.19%; growth percentage [25]: 104.53%; growth percentage [26]: 79.81%; growth percentage [27]: 86.44%; growth percentage [28]: 101.57%
O=C1c2cc(Cl)ccc2-c2c(O)nc3ccccc3c21 [SJ-26, 6-Hydroxy-9-chloro-11H-indeno[1,2-c]quinolin-11-one] | 68.09% | 100.02% | 111.80% | 97.00% | 102.38% | 105.79% | 103.43% | 92.48% | 102.73% | 103.37% | 105.78% | 100.35% | 91.28% | 108.54% | 106.64% | 102.24% | 71.62% | 106.31% | 104.88% | 102.31% | growth percentage [29]: 96.46%; growth percentage [9]: 105.98%; growth percentage [19]: 91.26%; growth percentage [24]: 85.66%; growth percentage [26]: 86.98%; growth percentage [27]: 95.17%; growth percentage [28]: 120.08%
